No end group written: not given here.
How the values were obtained:
[1] = Peptide interaction with anionic giant unilamellar vesicles; conditions: 1 µM CF-labeled peptide, 30 min, room temperature, fluorescence microscopy, Oyster405 dye outflow
Method: A thin agarose layer is necessary to build GUVs. Therefore, 1% super low melting agarose was melted in deionized water by heating up in a microwave. Afterward, 200 µL were coated on a clean slide and dried at 50 °C for 30 min on a heating plate; 10 µL of respective lipid solution was added onto the agarose layer and subsequently distributed and dried for 1 h using an exicator under vacuum to get rid of the chloroform. For staining the lipid layer, 0.2 mol % Atto550 was added. Afterward, a sealing ring was added around the pink lipid film. Lipids were hydrated with dextran buffer (10 mM HEPES buffer (pH 7.4), 50 mM KCl, 50 mM NaCl and 1 mg/mL Dextran) containing 3 µL Oyster405 (Luminaris GmbH, Münster, Germany) encapsulating the blue dye. Slides were incubated for 2 h at RT. […] For fluorescence microscopy analysis, lipids were transferred into an eight-well Ibidi® plate; 40 µL of respective GUV solution was mixed with 1 µM peptide solutions and filled up to 100 µL with dextran buffer. […] Afterward, GUVs were analyzed using a BZ-X800E microscope (Keyence, Osaka, Japan) followed by image processing with ImageJ.
Figure 4 Peptide interaction with […] (GUVs) composed of DOPC/DOPE/DOPG (40:30:30); 1 µM solutions of sC18 variants were incubated with GUVs for 30 min and inspected using a fluorescence microscope (Keyence). […]

HeLa cells [2] = test: Cytotoxicity (resazurin) assay in HeLa cells; conditions: 24 h, 25 µM peptide, resazurin assay
Method: For cell viability assay, cells were (15,000 HeLa, 17,000 MCF-7 and 12,000 HFF-1 cells per well) seeded onto a 96-well plate and grown to 80–90% confluency. Cells were incubated with several peptide concentrations in a serum-free growth medium for 24 h under standard growth conditions. For the positive control, cells were treated with 70% EtOH for 7 min. After washing with DPBS, resazurin solution (10% in serum-free media, v/v) was incubated with the cells for 1 h under standard growth conditions. The cell viability was determined relative to untreated cells by measurement of the resorufin product at 595 nm (λex = 550 nm) on a Tecan infinite M200 plate reader (Tecan Group AG, Männedorf, Switzerland).
Figure 2 (A,B): Cytotoxicity profiles of the peptides in HeLa and HEK-293 cells. Cells were cultured and incubated at pH 7.4 for 24 h with different concentrations of peptide solutions. Untreated cells served as negative control; cells treated with 70% ethanol as positive control. Values from the positive control were subtracted from all data, and the untreated cells were set to 100%; assays were performed with n = 3 in triplicate. (C): Flow cytometry analysis of HeLa or HEK-293 cells after incubating 1 and 10 µM peptide solutions for 30 min at 37 °C; assays were conducted in triplicate n = 3. (D): Confocal laser scanning microscopy analysis of 10 µM CF-labeled peptides after 30 min of incubation in HeLa cells. Green: CF-labeled peptides; blue: Hoechst 33342 nuclear stain; scale bar is 10 µm.
Figure 5 (A): Cytotoxicity assay using HFF-1 cells. Different PDC concentrations were incubated with the cells for 24 h at 37 °C and a resazurin assay was conducted. (B): Dose-response curves for peptide drug conjugates were obtained using the resazurin assay. For this, HeLa cells were treated with various conjugate concentrations (2.5–70 µM) for 24 h at 37 °C. (C): Quantification of PDC internalization in HeLa cells; 10 µM PDC solutions were incubated with cells for 30 min at 37 °C and cells were inspected using a flow cytometer; assays were conducted in triplicate n = 3.

HeLa cells [3] = test: Fluorescence microscopy of intracellular distribution in HeLa cells; format: cell-based, human; conditions: 10 µM CF-labeled peptide, 30 min, confocal fluorescence microscopy
Method: Cells were seeded into 8-well plates (HeLa cells 35,000 and HFF-1 25,000 cells per well, respectively) and grown to 80–90% confluency. Cells were treated with 10 μM CF- or dox-labeled peptides in a serum-free medium for 30 min at 37 °C. Ten minutes prior to the end of the incubation time, nuclei were stained with Hoechst33342. The peptide solution was removed, and cells were washed five times with PBS and covered with fresh medium including FBS. Microscopic analysis was performed using an inverse confocal TCS SP8 microscope (Leica Microsystems, Wetzlar, Germany), equipped with a 63× oil-immersion objective. Images were recorded with LAS X software (LAS_X_Core_3.7.6_25997, Leica Microsystems, Wetzlar, Germany). For the GUV analysis and the uptake of the peptide-drug conjugates the Keyence fluorescence tabletop microscope BZ-X800E (Keyence, Osaka, Japan), with a 60× oil immersion lens was used. Images were recorded with Keyence software (BZ-800X_Analyzer 1.1.1.8, Keyence, Osaka: Japan) and evaluated with Fiji.
Figure 6 Fluorescence microscope analysis of 5 µM conjugates after 30 min of incubation at 37 °C in HeLa and HFF-1 cells. Red: peptides coupled to red fluorophore Doxorubicin; blue: Hoechst 33342 nuclear stain; BF: brightfield to identify living cells; scale bar is 20 µm.

HEK293 cells [4] = test: Cellular uptake by flow cytometry in HEK293 cells; format: cell-based, human; conditions: 1 and 10 µM CF-labeled peptide, 30 min, 37 °C, serum-free medium, triplicate n = 3
Method: Monolayer cellular uptake was quantified using flow cytometry. Cells were seeded onto a 24-well plate (HeLa: 90,000, HEK293: 100,000 and MCF-7 130,000 cells per well) and grown to 80–90% confluency. Then, cells were incubated with the labeled peptides/conjugates in a serum-free medium at 37 °C for various incubation times, and subsequently washed twice with PBS and detached with indicator-free trypsin resuspended in an indicator-free serum-containing medium. The cell suspension was transferred into a 96-well FACS plate and fluorescence was then measured by a Guava easyCyte flow cytometer (Merck, Darmstadt, Germany).The blue laser was used for all measurements, FSC (1137–1538), SSC (3020–4086), Grn-B (647–875) and Red-B (694–939). Cellular autofluorescence of untreated control cells was subtracted.

HEK293 cells [5] = test: Cytotoxicity (resazurin) assay in HEK293 cells; format: cell-based, human; conditions: 24 h

With RLRKLLRKFLRK-NH2 [sC18*^R,L] the “interaction with anionic GUVs” value [1] was “strongest accumulation leading to membrane disruption events and complete dye outflow from the vesicles”, the “cell viability at 25 µM” value (HeLa cells [2]) was ~35% and the “intracellular accumulation / uptake pattern” value (HeLa cells [3]) was “highly enriched all over the cytosol including uptake in the nuclei”. The “cellular uptake” value (HEK293 cells [4]) was “highly significant and enhanced internalization” and the “concentration at which toxic effect started” value (HEK293 cells [5]) was 50 µM.

From PMC9570898, “Comparing Variants of the Cell-Penetrating Peptide sC18 to Design Peptide-Drug Conjugates” (Molecules, 2022)
